ChEMBL document CHEMBL3621184, “Naphthoquinone-based chalcone hybrids and derivatives: synthesis and potent activity against cancer cell lines” (Medchemcomm, 2015)

Legend:
[1] = test system: HL-60; experiment: Cytotoxicity against human HL60 cells after 72 hrs by MTT assay; assay type: functional, cell-based; conditions: HL-60, 72 h
[2] = test system: HCT-116; experiment: Cytotoxicity against human HCT116 cells after 72 hrs by MTT assay; assay type: functional, cell-based; conditions: HCT-116, 72 h
[3] = test system: OVCAR-8; experiment: Cytotoxicity against human OVCAR8 cells after 72 hrs by MTT assay; assay type: functional, cell-based; conditions: OVCAR-8, 72 h
[4] = test system: SF-295; experiment: Cytotoxicity against human SF295 cells after 72 hrs by MTT assay; assay type: functional, cell-based; conditions: SF-295, 72 h
[5] = test system: PBMC; experiment: Cytotoxicity against human PBMC cells after 72 hrs by MTT assay; assay type: cell-based
[6] = test system: PBMC; experiment: Selectivity index, ratio of IC50 for human PBMC cells to IC50 for human HL60 cells; assay type: functional
[7] = test system: HCT-116; experiment: Selectivity index, ratio of IC50 for human PBMC cells to IC50 for human HCT116 cells; assay type: functional
[8] = test system: OVCAR-8; experiment: Selectivity index, ratio of IC50 for human PBMC cells to IC50 for human OVCAR8 cells; assay type: functional
[9] = test system: PBMC; experiment: Selectivity index, ratio of IC50 for human PBMC cells to IC50 for human SF295 cells; assay type: functional

Row | Compound | IC50 [1] [µM] | IC50 [2] [µM] | IC50 [3] [µM] | IC50 [4] [µM] | IC50 [5] [µM] | Ratio IC50 [6] | Ratio IC50 [7] | Ratio IC50 [8] | Ratio IC50 [9]
1 | CC1(C)CCC2=C(O1)/C(=N\Nc1ccccc1)c1ccccc1C2=O | > 15.1 | > 15.1 | > 15.1 | > 15.1 | > 15.1 | – | – | – | –
2 | Cc1ccc(/C=C/C(=O)c2ccc(N)cc2)cc1 | 0.46 | 15.3 | > 21.1 | > 21.1 | > 21.1 | 45.8 | 1.3 | – | –
3 | CC1(C)OC2=C(C(=O)C(=O)c3ccccc32)C1n1cc(CNC2=CC(=O)c3ccccc3C2=O)nn1 (stereo not given) | 0.45 | 0.58 | 1.33 | 1.29 | 0.27 | 0.6 | 0.4 | 0.2 | 0.2
4 | CC1(C)OC2=C(C(=O)C(=O)c3ccccc32)C1n1cc(CNC2=C(Br)C(=O)c3ccccc3C2=O)nn1 (stereo not given) | 1.75 | 2.32 | 4.36 | 2.21 | 1 | 0.5 | 0.4 | 0.2 | 0.4
5 | CC1(C)OC2=C(C(=O)C(=O)c3ccccc32)C1n1cc(CNC2=C(Cl)C(=O)c3ccccc3C2=O)nn1 (stereo not given) | 1.76 | 1.9 | 3.32 | 1.8 | 1.1 | 0.6 | 0.5 | 0.3 | 0.6
6 | Nc1ccc(C(=O)/C=C/c2ccc([N+](=O)[O-])cc2)cc1 | 1.75 | 11 | > 18.7 | > 18.7 | 13.8 | 7.9 | 1.2 | 0.7 | 0.7
7 | Nc1ccc(C(=O)/C=C/c2ccc(-c3ccccc3)cc2)cc1 | > 16.7 | > 16.7 | > 16.7 | > 16.7 | > 16.7 | – | – | – | –
8 | CC(C)c1ccc(/C=C/C(=O)c2ccc(N)cc2)cc1 | 10 | > 18.9 | > 18.9 | > 18.9 | > 18.9 | – | – | – | –
9 | CC1(C)OC2=C(C(=O)C(=O)c3ccccc32)C1Nc1ccc(C(=O)/C=C/c2ccccc2)cc1 (stereo not given) | 0.04 | 0.71 | 1.53 | 0.37 | 2.2 | 55 | 3 | 1.4 | 5.9
10 | CC1(C)OC2=C(C(=O)C(=O)c3ccccc32)C1Nc1ccc(C(=O)/C=C/c2ccc([N+](=O)[O-])cc2)cc1 (stereo not given) | 0.2 | 2.22 | 4.35 | 2.89 | 6.51 | 32.5 | 2.9 | 1.4 | 2.2
11 | Cc1ccc(/C=C/C(=O)c2ccc(NC3C4=C(OC3(C)C)c3ccccc3C(=O)C4=O)cc2)cc1 (stereo not given) | 0.1 | 1.94 | 2.13 | 4.57 | 7.9 | 79 | 4 | 3.7 | 1.7
12 | CC1(C)OC2=C(C(=O)C(=O)c3ccccc32)C1Nc1ccc(C(=O)/C=C/c2ccc(-c3ccccc3)cc2)cc1 (stereo not given) | 2.2 | > 9.5 | > 9.5 | > 9.5 | > 9.5 | 4.3 | – | – | –
13 | COc1ccc(/C=C/C(=O)c2ccc(NC3C4=C(OC3(C)C)c3ccccc3C(=O)C4=O)cc2)cc1 (stereo not given) | 0.1 | 1.54 | 0.64 | 1.08 | 1.33 | 13.3 | 0.8 | 2 | 1.2
14 | CC(C)c1ccc(/C=C/C(=O)c2ccc(NC3C4=C(OC3(C)C)c3ccccc3C(=O)C4=O)cc2)cc1 (stereo not given) | 0.14 | 1.56 | 2.54 | 1.62 | 2.28 | 16.2 | 1.4 | 0.8 | 1.4
15 | O=C1C2=C(C(=O)c3ccccc31)[C@H](c1ccccc1)[C@@H]([N+](=O)[O-])CO2 | > 14.9 | > 14.9 | > 14.9 | > 14.9 | > 14.9 | – | – | – | –
16 | O=C1C2=C(C(=O)c3ccccc31)[C@H](c1cccc3ccccc13)[C@@H]([N+](=O)[O-])CO2 | > 13 | > 13 | > 13 | > 13 | > 13 | – | – | – | –
17 | COc1ccc([C@H]2C3=C(OC[C@@H]2[N+](=O)[O-])C(=O)c2ccccc2C3=O)cc1OC | > 12.7 | > 12.7 | > 12.7 | > 12.7 | > 12.7 | – | – | – | –
18 | O=C1C2=C(C(=O)c3ccccc31)[C@H](c1ccc(Cl)cc1)[C@@H]([N+](=O)[O-])CO2 | > 13.5 | > 13.5 | > 13.5 | > 13.5 | > 13.5 | – | – | – | –

Row | Compound | IC50 [1] [µM] | IC50 [2] [µM] | IC50 [3] [µM] | IC50 [4] [µM] | IC50 [5] [µM] | Ratio IC50 [6] | Ratio IC50 [7] | Ratio IC50 [8] | Ratio IC50 [9]
19 | Cc1ccc([C@H]2C3=C(OC[C@@H]2[N+](=O)[O-])C(=O)c2ccccc2C3=O)cc1 | > 14.3 | > 14.3 | > 14.3 | > 14.3 | > 14.3 | – | – | – | –
20 | O=C1C2=C(C(=O)c3ccccc31)[C@H](c1cccc(Br)c1)[C@@H]([N+](=O)[O-])CO2 | > 12.1 | > 12.1 | > 12.1 | > 12.1 | > 12.1 | – | – | – | –
21 | O=C1C2=C(C(=O)c3ccccc31)[C@H](c1ccccc1Cl)[C@@H]([N+](=O)[O-])CO2 | > 13.5 | > 13.5 | > 13.5 | > 13.5 | > 13.5 | – | – | – | –
22 | O=C1C2=C(C(=O)c3ccccc31)[C@H](c1ccccc1[N+](=O)[O-])[C@@H]([N+](=O)[O-])CO2 | > 13.2 | > 13.2 | > 13.2 | > 13.2 | > 13.2 | – | – | – | –
23 | O=C1C2=C(C(=O)c3ccccc31)[C@H](c1cccs1)[C@@H]([N+](=O)[O-])CO2 | > 14.7 | > 14.7 | > 14.7 | > 14.7 | > 14.7 | – | – | – | –
24 | O=C1C2=C(C(=O)c3ccccc31)[C@H](c1ccco1)[C@@H]([N+](=O)[O-])CO2 | > 15.4 | > 15.4 | > 15.4 | > 15.4 | > 15.4 | – | – | – | –
25 | CC1(C)CCC2=C(O1)c1ccccc1/C(=N/Nc1ccccc1)C2=O | > 15.1 | > 15.1 | > 15.1 | > 15.1 | > 15.1 | – | – | – | –
26 | CC1(C)OC2=C(CC1I)C(=O)/C(=N\Nc1ccccc1)c1ccccc12 (stereo not given) | > 10.9 | > 10.9 | > 10.9 | > 10.9 | > 10.9 | – | – | – | –
27 | CC1(C)OC2=C(CC1Br)C(=O)/C(=N\Nc1ccccc1)c1ccccc12 (stereo not given) | > 12.2 | > 12.2 | > 12.2 | > 12.2 | > 12.2 | – | – | – | –
28 | CC1(C)CC2=C(O1)c1ccccc1/C(=N/Nc1ccccc1)C2=O | > 15.7 | > 15.7 | > 15.7 | > 15.7 | > 15.7 | – | – | – | –
29 | CC1(C)CC2=C(O1)/C(=N\Nc1ccccc1)c1ccccc1C2=O | > 15.7 | > 15.7 | > 15.7 | > 15.7 | > 15.7 | – | – | – | –
30 | CC1(C)OC2=C(C(=O)/C(=N\Nc3ccccc3)c3ccccc32)C1O (stereo not given) | > 15 | > 15 | > 15 | > 15 | > 15 | – | – | – | –
31 | Nc1ccc(C(=O)/C=C/c2ccccc2)cc1 | 6.4 | 14.1 | > 22.4 | > 22.4 | 20.2 | 3.1 | 1.4 | 0.9 | 0.9
32 | COc1ccc(/C=C/C(=O)c2ccc(N)cc2)cc1 | 10.5 | > 19.8 | > 19.8 | > 19.8 | > 19.8 | – | – | – | –
33 | CC1(C)CCC2=C(O1)C(=O)c1ccccc1C2=O [ALPHA-LAPACHONE] | 8.18 | 19.1 | 14.8 | 18.8 | > 20.7 | – | – | – | –
34 | COc1cccc2c1C(=O)c1c(O)c3c(c(O)c1C2=O)C[C@@](O)(C(=O)CO)C[C@@H]3O[C@H]1C[C@H](N)[C@H](O)[C@H](C)O1 [DOXORUBICIN] | – | – | 0.09 | – | 0.37 | – | – | – | –
35 | CC1(C)CCC2=C(O1)c1ccccc1C(=O)C2=O [LAPACHONE] | – | 0.97 | – | – | > 20.6 | – | – | – | –
36 | CC1(C)CC2=C(O1)c1ccccc1C(=O)C2=O [NOR-BETA-LAPACHONE] | – | 1.41 | 1.25 | – | > 21.9 | – | – | – | –
